Tests used:
[1] = tested on: brain slices exposed to OGD; test: Lactate dehydrogenase (LDH) release induced by oxygen-glucose deprivation (OGD) in brain slices; type: cell-based, rat
Method: Rats were killed by decapitation under halothane anesthesia. The brains were removed and placed in ice-cold freshly prepared artificial cerebrospinal fluid (aCSF). Coronal brain slices (400 μm thickness) including the striatum (anteriority: from +1.2 to +2 mm from bregma) were cut using a tissue chopper (Mickie Laboratory Engineering Co., Gomshall, Surrey, UK).
The effects of gas mixtures containing xenon and argon on the release of lactate dehydrogenase (LDH) induced by OGD were assessed as described previously. Before being used, brain slices were transferred into individual vials with 1.3 ml of freshly prepared oxygenated aCSF containing 120 mM NaCl, 2 mM KCl, 2 mM CaCl2, 26 mM NaHCO3, 1.19 mM MgSO4, 1.18 mM KH2PO4, 11 mM d-glucose, and 30 mM HEPES and allowed to recover at room temperature for 45 min. Then, brain slices were placed at 36±0.5° C. into individual vials containing 1.3 ml of freshly prepared aCSF, saturated, and continuously bubbled with 100% oxygen (25 ml/min per vial). After a 30-min period, the incubation aCSF solution was renewed with oxygenated aCSF maintained at 36° C., and the slices were then incubated for 1 h to allow recording of basal levels of LDH. Whereas control slices were incubated for an additional 20-min period in the same conditions, those corresponding to the ischemic group were incubated in a glucose-free solution, saturated, and continuously bubbled with 100% nitrogen (OGD slices). After this 20-min period of OGD, to mimic reperfusion and treatment, the medium was replaced in all groups with freshly prepared aCSF solution, saturated and continuously bubbled with either medical air or gas mixtures containing xenon and argon in volume proportions as described below (see gas pharmacology section; n=20-36).
Xenon, argon, nitrogen, and oxygen were purchased from Air Liquide Sante (Paris, France). […]

tPA and rtPA = tPA and rtPA (Homo sapiens, UniProt P00750); settings: cited from earlier work
elastase = elastase (Sus scrofa, UniProt P00772); settings: cited from earlier work; for binding to the active site of elastase: serine protease used as a model of tPA
[2] = tested on: rats injected with intracerebral NMDA; test: NMDA-induced neuronal death in vivo (brain damage after intracerebral injection of NMDA); design: species or system rat
Method: The effects of gas mixtures containing xenon and argon on the […] were assessed as described previously. On the day of surgery, rats were anesthetized with 1.5% halothane in oxygen alone in an anesthesia box and mounted on a stereotactic apparatus with the incisor bar set at 3.9 mm below the horizontal zero. A burr hole was drilled and a micropipette (less than […] at the tip) was lowered into the right striatum (anterior, 0.6 mm; lateral, 3.0 mm; ventral, 5.8 mm, from bregma) to allow injection of 70 nmol of NMDA in 1 μl of phosphate buffered solution (pH 7.4) over a 2-min period. After an additional 5-min period, the micropipette was removed, and the wounds were then sutured. During surgery, body temperature was kept at 37 ±0.5° C. with a feedback-controlled thermostatic heating pad (Harvard Apparatus Limited, Edenbridge, UK). The animals woke up in their home cage after about 10 min, where they were given free access to food and water. Sixty minutes after NMDA administration, rats were treated with medical air or gas mixtures containing xenon and argon (see gas pharmacological section). The number of rats per group was n=7-11.
(§1) Xenon, argon, nitrogen, and oxygen were purchased from Air Liquide Sante (Paris, France). Medical air composed of 75 vol % nitrogen and 25 vol % oxygen, and xenon and argon mixtures containing 37.5 vol % xenon and 37.5 vol % argon (Xe—Ar-37.5), 25 vol % xenon and 25 vol % argon (Xe—Ar-25) or 15 vol % xenon and 15 vol % argon (Xe—Ar-15)—with 25 vol % oxygen and the remainder being nitrogen when needed—were obtained using computer-driven gas mass flowmeters, and an oxygen analyzer to check that the gas mixtures used were not hypoxic.

[3] = target: T1, recombinant form of human tPA (Homo sapiens, UniProt P00750); test: In vitro tPA catalytic activity assay (initial rate method, chromogenic substrate); type: biochemical; settings: for catalytic efficiency of tPA: single gas alone at 25 vol %
T1 construct: purchased Boehringer Ingelheim Actilyse
Method: […] The recombinant form of human tPA (Actilyse®; Boehringer Ingelheim, Ingelheim am Rhein, Germany) and its specific chromogenic substrate methylsulfonyl-D-phenyl-glycil-arginine-7-amino-4-methylcoumarin acetate (Spectrozyme® XF, product 444; American Diagnostica, Stamford, CT) were diluted separately in 1 ml distilled water in 1.5-ml sterile tubes. […] The catalytic efficiency of tPA was assessed by the initial rate method by incubating 50 μl tPA with 50 μl substrate in a spectrofluorometer microplate reader set at 37° C.
as §1

[4] = cited from earlier work
[5] = tested on: rat model of thromboembolic stroke; settings: intraischemic administration; cited from earlier work

T1 sequence (P00750 36-562): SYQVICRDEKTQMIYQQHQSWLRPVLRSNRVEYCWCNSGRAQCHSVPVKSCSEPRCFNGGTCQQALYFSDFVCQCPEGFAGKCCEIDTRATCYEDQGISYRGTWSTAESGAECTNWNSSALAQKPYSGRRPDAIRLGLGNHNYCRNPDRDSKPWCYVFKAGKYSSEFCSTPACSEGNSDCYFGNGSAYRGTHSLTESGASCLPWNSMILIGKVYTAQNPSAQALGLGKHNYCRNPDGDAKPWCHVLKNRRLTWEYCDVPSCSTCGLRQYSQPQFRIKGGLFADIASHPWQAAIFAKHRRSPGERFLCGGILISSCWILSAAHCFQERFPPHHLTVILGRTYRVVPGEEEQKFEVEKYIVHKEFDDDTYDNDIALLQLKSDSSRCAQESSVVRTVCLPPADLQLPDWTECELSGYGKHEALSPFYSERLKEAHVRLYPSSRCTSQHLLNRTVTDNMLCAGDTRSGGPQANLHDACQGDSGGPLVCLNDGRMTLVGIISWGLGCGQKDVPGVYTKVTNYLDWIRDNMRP
Chain of elastase (P00772 27-266): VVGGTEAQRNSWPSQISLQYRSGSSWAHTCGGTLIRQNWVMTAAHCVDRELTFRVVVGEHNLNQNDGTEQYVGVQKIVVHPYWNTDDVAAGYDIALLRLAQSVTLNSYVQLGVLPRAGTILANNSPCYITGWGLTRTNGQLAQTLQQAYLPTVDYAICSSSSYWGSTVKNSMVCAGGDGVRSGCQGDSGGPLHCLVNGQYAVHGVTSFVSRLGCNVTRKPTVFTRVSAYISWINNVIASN
Chain of tPA and rtPA (P00750 36-562): as the sequence (P00750 36-562) above

SMILES | OGD-induced LDH release ([1]; single gas alone at 15 vol %) | OGD-induced LDH release ([1]; single gas alone at 25 vol %) | inhibiting action on the thrombolytic properties of tPA and rtPA (tPA and rtPA; neuroprotective concentrations of 50 vol % and above) | affinity for elastase relative to xenon (elastase) | binding to the active site of elastase (elastase) | NMDA-induced brain damage ([2]; single gas alone at 15 vol %) | NMDA-induced brain damage ([2]; single gas alone at 25 vol %) | tPA-induced catalytic activity ([3]; argon alone, concentration not given) | catalytic efficiency of tPA [3] | neuroprotection ([4]; subanesthetic concentrations of 37.5 vol % or 50 vol %) | possible therapeutic window of neuroprotection ([4]; xenon alone) | inhibition of tPA and rtPA (tPA and rtPA; xenon alone) | tPA-induced thrombolysis and subsequent reduction of ischemic brain damage [5]
[Ar] [argon] | also had no effect by itself on OGD-induced LDH release | had no effect by itself on OGD-induced LDH release | shows no inhibiting action | lower affinity than xenon | bind to the active site of elastase | also had no effect by itself on NMDA-induced brain damage | had no effect by itself on NMDA-induced brain damage | has no effect | decreased it significantly | – | – | – | –
[Xe] [xenon] | had no effect by itself on OGD-induced LDH release | – | – | – | bind to the active site of elastase | had no effect by itself on NMDA-induced brain damage | – | – | had no effect on the catalytic efficiency of tPA | provided neuroprotection | about 8 h | potent inhibitor of tPA and rtPA | dose-dependently inhibits
